Laboratory results reported in PMC8615111, “Phenolic Thiazoles with Antioxidant and Antiradical Activity. Synthesis, In Vitro Evaluation, Toxicity, Electrochemical Behavior, Quantum Studies and Antimicrobial Screening” (Antioxidants, 2021).

Tests used:
C. albicans ATCC 102310 = assay: Antifungal activity, modified microdilution; format: cell-based; conditions: Candida albicans, ATCC102310; C. albicans ATCC 102310; read-out: MIC
[1] = ABTS˙^+ radical scavenging assay; format: biochemical
P. aeruginosa ATCC 27853 = assay: Antimicrobial activity, modified microdilution; format: cell-based; conditions: Pseudomonas aeruginosa, ATCC27853; P. aeruginosa ATCC 27853; read-out: MIC
S. pyogenes ATCC 19615 = assay: Antimicrobial activity, modified microdilution; format: cell-based; conditions: Streptococcus pyogenes, ATCC19615; S. pyogenes ATCC 19615; read-out: MIC
S. aureus ATCC 25923 = assay: Antimicrobial activity, modified microdilution; format: cell-based; conditions: Staphylococcus aureus, ATCC25923; S. aureus ATCC 25923; read-out: MIC
[2] = tested on: S. typhimurium ATCC 14028; assay: Antimicrobial activity, modified microdilution; format: cell-based; conditions: Salmonella enterica; S. typhimurium ATCC 14028; read-out: MIC
E. coli ATCC 8739 = assay: Antimicrobial activity, modified microdilution; format: cell-based; conditions: Escherichia coli, ATCC8739; E. coli ATCC 8739; read-out: MIC
S. enterica ISM 83/37 = assay: Antimicrobial activity, modified microdilution; format: cell-based; conditions: Salmonella enterica, ISM83/37
E. coli ATCC 25922 = assay: Antimicrobial activity, modified microdilution; format: cell-based; conditions: Escherichia coli, ATCC25922; E. coli ATCC 25922; read-out: MIC
[3] = Ferric ions (Fe^3+) reducing antioxidant power by cyclic voltammetry
Description: The evaluated compounds’ stock solutions used were prepared at a concentration of 5 mM. To test their redox properties, dilutions of 0.5 mM and 2 mM were prepared in 0.1 M HClO4 electrolyte (pH = 1.2). Screen-printed electrodes (SPEs; Metrohm DropSens, Oviedo, Spain) (planar electrodes) with graphite and gold working electrodes were used. Cyclic voltammetry (CV) and differential pulse voltammetry (DPV) were the electrochemical methods applied. The experimental conditions for each test are mentioned near the corresponding data (Appendix A).
The antioxidant properties were evaluated in terms of their activity against some free radicals, and other compounds reported in the literature, relevant for this purpose, such as: • ferric ions (Fe^3+)—used to test the reduction of the antioxidant character of the compounds; • DPPH˙ free radical– used to test the scavenging effect of the compounds on this radical; • hydrogen peroxide (H2O2)—used to test the scavenging effect of the synthesized molecules on this compound; • 2,2,6,6-tetramethylpiperidinyl-1-oxy (TEMPO)—used to test the scavenging effect of the synthesized molecules on this compound.
This method is based on the evaluation of the influence of the compound measured by the direct reduction of Fe[(CN)6]^3− to […]. This assay is based on the reduction of Fe^3+ to Fe^2+ due to the action of antioxidants. Based on the electrochemical behavior of the studied compounds, the interaction of Fe^3+ was followed by cyclic voltammetry (CV) via the possible changes of redox peaks characteristic for Fe^3+/Fe^2+ transition after the interaction with antioxidants (if any).
From the voltammogram of potassium ferricyanide it can be observed that the one-electron transfer process Fe^3+/Fe^2+ occurs at 0.247 V/ 0.150 V in acidic media (red) (Figure A1; Table A1).
Each compound presents its characteristic peaks (blue line in each figure).

Cu^2+ chelation assay = format: biochemical

Cl.Oc1ccc(/C=N/Nc2nc(-c3ccc(O)c(O)c3)cs2)c(O)c1 [Compound 8b, (E)-2-(2,4-dihydroxybenzylidene)-1-(4-(3,4-dihydroxyphenyl)thiazol-2-yl)hydrazin-1-ium chloride]
MIC (C. albicans ATCC 102310): > 100 µg/mL | % of ABTS˙^+ Scavenged ([1]; 0.5 µg/mL): 40.09% | % of ABTS˙^+ Scavenged ([1]; 0.75 µg/mL): 44.44% | % of ABTS˙^+ Scavenged ([1]; 1 µg/mL): 50.79% | % of ABTS˙^+ Scavenged ([1]; 1.5 µg/mL): 66.66% | % of ABTS˙^+ Scavenged ([1]; 2.5 µg/mL): 96.82% | IC50 ([1]; ABTS˙^+ scavenging): 0.91 µg/mL | MIC (P. aeruginosa ATCC 27853): 31.2 µg/mL | MIC (S. pyogenes ATCC 19615): > 100 µg/mL | MIC (S. aureus ATCC 25923): > 100 µg/mL | MIC [2]: > 100 µg/mL | MIC (E. coli ATCC 8739): > 100 µg/mL | MIC (S. enterica ISM 83/37): > 100 µg/mL | MIC (E. coli ATCC 25922): > 100 µg/mL | Eox (V) ([3]; compound 0.5 mM + Fe^3+/Fe^2+ (0.5 mM potassium ferricyanide), 1st Eox column): 0.083 V | Iox (μA) ([3]; compound 0.5 mM + Fe^3+/Fe^2+ (0.5 mM potassium ferricyanide), 1st Iox column): 0.34 μA | Ered (V) ([3]; compound + Fe^3+/Fe^2+, 1st Ered): 0.079 V | Ired (μA) ([3]; compound + Fe^3+/Fe^2+, 1st Ired): −8.01 μA | Eox (V) ([3]; compound + Fe^3+/Fe^2+, 2nd Eox): 0.227 V | Ered (V) ([3]; compound + Fe^3+/Fe^2+, 2nd Ered column): 0.279 V | Iox (μA) ([3]; compound + Fe^3+/Fe^2+, 2nd Iox column): 28.09 μA | Ired (μA) ([3]; compound + Fe^3+/Fe^2+, 2nd Ired): −2.81 μA | Eox (V) ([3]; compound + Fe^3+/Fe^2+, 4th Eox column): 0.449 V | Iox (μA) ([3]; compound + Fe^3+/Fe^2+, 4th Iox column): 28.48 μA | Eox (V) ([3]; compound + Fe^3+/Fe^2+, 5th Eox): 0.79 V | Iox (μA) ([3]; compound + Fe^3+/Fe^2+, 5th Iox column): 15.19 μA | Eox (V) ([3]; compound alone 0.5 mM in 0.1 M HClO4, 2nd Eox): 0.249 V | Ered (V) ([3]; compound alone 0.5 mM in 0.1 M HClO4, 2nd Ered column): 0.303 V | Iox (μA) ([3]; compound alone 0.5 mM in 0.1 M HClO4, 2nd Iox column): 1.02 μA | Ired (μA) ([3]; compound alone 0.5 mM in 0.1 M HClO4, 2nd Ired): −1.97 μA | Eox (V) ([3]; compound alone 0.5 mM in 0.1 M HClO4, 3rd Eox column): 0.349 V | Iox (μA) ([3]; compound alone 0.5 mM in 0.1 M HClO4, 3rd Iox column): 1.76 μA | Eox (V) ([3]; compound alone 0.5 mM in 0.1 M HClO4, 4th Eox column): 0.450 V | Iox (μA) ([3]; compound alone 0.5 mM in 0.1 M HClO4, 4th Iox column): 2.29 μA | Eox (V) ([3]; compound alone 0.5 mM in 0.1 M HClO4, 5th Eox): 0.989 V | Iox (μA) ([3]; compound alone 0.5 mM in 0.1 M HClO4, 5th Iox column): 1.17 μA | Chelation Capacity (%), cupric ions (Cu^2+ chelation assay; 3.36 µg/mL): 7.34% | Chelation Capacity (%), cupric ions (Cu^2+ chelation assay; 6.72 µg/mL): 11.97% | Chelation Capacity (%), cupric ions (Cu^2+ chelation assay; 10.08 µg/mL): 16.62% | Chelation Capacity (%), cupric ions (Cu^2+ chelation assay; 13.44 µg/mL): 20.30% | Chelation Capacity (%), cupric ions (Cu^2+ chelation assay; 16.80 µg/mL): 26.71%
